The values that follow come from ChEMBL document CHEMBL5150046, “Discovery of a Series of 5-Amide-1H-pyrazole-3-carboxyl Derivatives as Potent P2Y14R Antagonists with Anti-Inflammatory Characters” (J Med Chem, 2022).

Data set [1] addresses T1, P2Y purinoceptor 14 (Homo sapiens) (UniProt Q15391).
T1 sequence (whole entry): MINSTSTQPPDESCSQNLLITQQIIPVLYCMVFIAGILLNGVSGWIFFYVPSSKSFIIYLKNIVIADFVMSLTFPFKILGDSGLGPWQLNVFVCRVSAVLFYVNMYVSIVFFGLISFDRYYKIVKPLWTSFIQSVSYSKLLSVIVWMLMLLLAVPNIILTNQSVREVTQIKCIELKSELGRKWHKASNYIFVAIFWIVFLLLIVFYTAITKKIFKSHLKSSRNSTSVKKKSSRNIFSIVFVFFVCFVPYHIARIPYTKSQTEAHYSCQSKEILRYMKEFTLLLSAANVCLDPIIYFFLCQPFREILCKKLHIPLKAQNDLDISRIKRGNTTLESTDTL

A further data set addresses T2, P2Y purinoceptor 14 (Homo sapiens, UniProt Q15391).
T2 sequence (Q15391 whole entry): T1 sequence (whole entry)
As to the kind of experiment: Antagonist activity at P2Y14R (unknown origin) expressed in HEK293 cells assessed as inhibition of forskolin-stimulated cAMP accumulation incubated in presence of IBMX by cAMP-glo assay. The format is functional, cell-based. Background: Changes in cAMP serve as a functional read-out for many G protein-coupled receptors.

In the next data set the target is T3, P2Y purinoceptor 13 (Homo sapiens, UniProt Q9BPV8).
T3 sequence (Q9BPV8 whole entry): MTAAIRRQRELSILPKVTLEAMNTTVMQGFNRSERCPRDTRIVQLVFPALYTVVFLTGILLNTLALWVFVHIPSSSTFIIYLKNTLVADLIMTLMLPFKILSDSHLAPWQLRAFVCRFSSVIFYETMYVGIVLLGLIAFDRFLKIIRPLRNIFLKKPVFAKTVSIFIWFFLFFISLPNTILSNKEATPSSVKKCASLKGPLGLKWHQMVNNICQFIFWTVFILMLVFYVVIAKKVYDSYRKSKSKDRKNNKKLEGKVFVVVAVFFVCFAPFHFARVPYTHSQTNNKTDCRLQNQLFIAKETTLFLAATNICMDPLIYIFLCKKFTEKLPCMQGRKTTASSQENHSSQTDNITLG
As to the kind of experiment: Antagonist activity at human P2Y13R expressed in HEK293 cells assessed as inhibition of 2MeSADP-induced cAMP production preincubated for 0.5 hrs followed by 2MeSADP stimulation by cAMP-glo assay. The format is functional, cell-based.

The next data set addresses P2Y purinoceptor 4 (Homo sapiens, UniProt P51582).
Data set [2] in a line: Metabolic stability in human liver microsomes assessed as half life at 2 ug/ml preincubated for 5 mins followed by NADPH addition and measured upto 45 mins by LC-MS/MS analysis. It counts as ADME, Microsome. The conditions noted are these: dose 2 µg/ml, time < 50 min. Background: Liver microsomes are vesicles of endoplasmic reticulum, rich in cytochrome P450 enzymes.
Data set [3] in a line: Aqueous solubility of the compound in PBS at pH 7.4 incubated for 24 hrs by UV-3000 absorption spectrometry analysis. It counts as physicochemical. The conditions noted are these: buffer, pH 7.4, 24 h.
Data set [4] in a line: Aqueous solubility of the compound in double distilled water at pH 7 incubated for 24 hrs by UV-3000 absorption spectrometry analysis. Conditions: buffer, pH 7, 24 h. The format is physicochemical.
Data set [5] can be described thus: Metabolic stability in human liver microsomes assessed as elimination rate constant at 2 ug/ml preincubated for 5 mins followed by NADPH addition and measured upto 45 mins by LC-MS/MS analysis. It counts as ADME, Microsome. Conditions: dose 2 µg/ml, time < 50 min.
Data set [6] is described as follows: Clearance in Sprague-Dawley rat at 10 mg/kg, po measured for 24 hrs. The format is ADME, organism-based. The conditions noted are these: in vivo.
Data set [7] is described as follows: Oral bioavailability in Sprague-Dawley rat at 10 mg/kg measured for 24 hrs. The format is ADME, organism-based. The conditions noted are these: in vivo.
Data set [8] in a line: AUC (0 to infinity) in Sprague-Dawley rat at 10 mg/kg, po measured for 24 hrs. The format is ADME, organism-based. Further details: dose 10 mg/kg, time 24 hrs, route po. Conditions: in vivo.
A short description of data set [9]: Aqueous solubility of the compound in simulated intestinal fluid without trypsin at pH 6.8 incubated for 24 hrs by UV-3000 absorption spectrometry analysis. The format is physicochemical. Conditions: simulated gi fluid, pH 6.8, 24 h.
The nature of data set [10]: Metabolic stability in rat liver microsomes assessed as half life at 2 ug/ml preincubated for 5 mins followed by NADPH addition and measured upto 45 mins by LC-MS/MS analysis. The format is ADME, Microsome. Conditions: dose 2 µg/ml, time < 50 min.
The nature of data set [11]: Tmax in Sprague-Dawley rat at 10 mg/kg, po measured for 24 hrs. Conditions: in vivo. The format is ADME, organism-based.
A short description of data set [12]: Aqueous solubility of the compound in simulated gastric fluid without pepsin at pH 1.2 incubated for 24 hrs by UV-3000 absorption spectrometry analysis. Conditions: simulated gi fluid, pH 1.2, 24 h. It counts as physicochemical.
A short description of data set [13]: AUC (0 to infinity) in Sprague-Dawley rat at 2.5 mg/kg, iv measured for 24 hrs. It counts as ADME, organism-based. Further details: time 24 hrs, dose 2.5 mg/kg, route iv. Conditions: in vivo.
Data set [14] in a line: Cmax in Sprague-Dawley rat at 10 mg/kg, po measured for 24 hrs. On the set-up: time 24 hrs, dose 10 mg/kg, route po. Conditions: in vivo. The format is ADME, organism-based.
Data set [15] is described as follows: Clearance in Sprague-Dawley rat at 2.5 mg/kg, iv measured for 24 hrs. Conditions: in vivo. The format is ADME, organism-based.
A short description of data set [16]: Half life in Sprague-Dawley rat at 10 mg/kg, po measured for 24 hrs. The format is ADME, organism-based. Conditions: in vivo.
Data set [17] in a line: Metabolic stability in rat liver microsomes assessed as elimination rate constant at 2 ug/ml preincubated for 5 mins followed by NADPH addition and measured upto 45 mins by LC-MS/MS analysis. The format is ADME, Microsome. Conditions: dose 2 µg/ml, time < 50 min.
Data set [18] in a line: Half life in Sprague-Dawley rat at 2.5 mg/kg, iv measured for 24 hrs. It counts as ADME, organism-based. The conditions noted are these: in vivo.
[19] abbreviates: HEK293, filed as antagonist, dose 100.0 nM.

Each structure is given as a SMILES string. Converted amounts (≈) assume the structure as drawn.

P2Y purinoceptor 4, sequence (P51582 whole entry): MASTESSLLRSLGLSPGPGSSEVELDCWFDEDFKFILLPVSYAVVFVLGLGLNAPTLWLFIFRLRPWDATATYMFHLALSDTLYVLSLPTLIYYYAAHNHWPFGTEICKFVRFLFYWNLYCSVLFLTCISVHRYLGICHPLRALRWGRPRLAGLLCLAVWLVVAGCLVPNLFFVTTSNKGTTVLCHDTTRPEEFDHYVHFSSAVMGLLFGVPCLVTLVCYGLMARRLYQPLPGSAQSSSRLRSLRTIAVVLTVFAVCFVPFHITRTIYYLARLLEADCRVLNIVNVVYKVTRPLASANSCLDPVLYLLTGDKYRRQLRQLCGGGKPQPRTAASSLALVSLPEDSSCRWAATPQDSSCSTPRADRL

As usually defined, the inhibition is the percentage by which the read-out fell short of the control. A lower inhibition goes with a response near the control. `O=C(Nc1cc(C(=O)O)nn1Cc1ccc(F)cc1)c1ccc(C(F)(F)F)cc1`: the inhibition in [1] (HEK293, dose 100.0 nM) turned out to be 31.4%.
In general, IC50 refers to the midpoint of a concentration-inhibition curve. For `CC(=O)c1ccc(C(=O)Nc2cc(C(=O)O)nn2Cc2ccc(F)cc2)cc1`, the inhibition in data set [1] (setting [19]) was determined as 98.2%. The IC50 on P2Y purinoceptor 14 was found to be 3.81 nM.
For `Cc1ccc(C(=O)Nc2cc(CC(=O)O)nn2Cc2ccc(F)cc2)cc1` the same measures were 98.3% and 14.3 nM.
For `CC(=O)c1ccc(Cn2nc(C(=O)O)cc2NC(=O)c2ccc(C)cc2)cc1` the same measures were 66.3% and 67 nM.
In the case of `CCOC(=O)c1cc(NC(=O)c2ccc(C)cc2)n(Cc2ccc(F)cc2)n1`, the inhibition in data set [1] (setting [19]) worked out at 68.3%.
Same read-out and setting: the same measure for `Cc1ccc(C(=O)Nc2cc(C(=O)O)nn2Cc2ccc(F)cc2)cn1`: 53.7%.
In the case of `CCCSc1nc(N[C@@H]2C[C@H]2c2ccc(F)c(F)c2)c2nnn([C@@H]3C[C@H](OCCO)[C@@H](O)[C@H]3O)c2n1` [TICAGRELOR], the half-maximal inhibitory concentration (IC50) at P2Y purinoceptor 13 turned out to be 1400 nM.
In turn, `Cc1ccc(C(=O)Nc2cc(C(=O)O)nn2Cc2ccc(F)cc2)s1` had an inhibition in data set [1] (setting [19]) of 77.9%.
Compound `O=C(Nc1cc(C(=O)O)nn1Cc1ccc(F)cc1)c1cccc(F)c1` had an inhibition in [1] (HEK293, dose 100.0 nM) of 25.2%.
Still for that read-out and setting: the same measure for `Cc1ccc(CCC(=O)Nc2cc(C(=O)O)nn2Cc2ccc(F)cc2)cc1`: 14.4%.
`Cc1ccc(C(=O)Nc2cc(C(=O)O)nn2Cc2cccc(F)c2)cc1` registered an inhibition in data set [1] (setting [19]) of 89%. Further, the IC50 at P2Y purinoceptor 14 was determined as 5.39 nM.
Turning to `O=C(Nc1cc(C(=O)O)nn1Cc1ccc(F)cc1)c1cccnc1`, the inhibition in data set [1] (HEK293, dose 100.0 nM) was found to be 27.4%.
On to `O=C(O)c1cc(NC(=O)c2ccco2)n(Cc2ccc(F)cc2)n1`, for which the inhibition in [1] (setting [19]) came to 76%.
In turn, `O=C(C1CC1)N1CCc2cc(Br)c(S(=O)(=O)Nc3ccc(Cl)c(C(F)(F)F)c3)cc21` returned an IC50 against P2Y purinoceptor 4 of 13.6 µM.
The term half-life denotes how long it takes for the measured level to halve. For orientation: solubility means how much of the substance goes into solution per volume. Read a low solubility as a poorly soluble substance. For orientation: CL/F means the apparent clearance, not corrected for the fraction that reaches the circulation. Usually bioavailability stands for the share of a dose that reaches the circulation, judged against a reference dose that is usually intravenous. One may read the AUC(0-inf) as total exposure, with the tail of the curve extrapolated. Low values mean low exposure, high ones high exposure. Usually Tmax stands for the time at which the peak concentration occurs. A word on the Cmax: it is the maximum level reached in the sampled fluid or tissue. Usually clearance stands for a measure of how efficiently the substance is removed, as volume per time. `Cc1ccc(C(=O)Nc2cc(C(=O)O)nn2Cc2ccc(F)cc2)cc1`: the half-life at 2 ug/ml is 1260 min in data set [2] and 173 min in data set [10]. The solubility was 318.7 µg/mL (≈ 902 µM) in [3], 88.5 µg/mL (≈ 250 µM) in data set [4], 202.7 µg/mL (≈ 574 µM) in [9] and 85.1 µg/mL (≈ 241 µM) in data set [12]. In addition, the k el at 0.75 h, 2 ug/ml was 8.33e-06 s⁻¹ in data set [5] and 6.67e-05 s⁻¹ in data set [17]. The compound also showed a CL/F in data set [6] of 32.5 mL/min/kg. The bioavailability in data set [7] came out at 43.2%. Further, the total exposure AUC(0-inf) was 4500 ng·h/mL in [8] and 2600 ng·h/mL in [13]. In addition, the Tmax in [11] is 15 min. The concentration in data set [14] peaked (Cmax) at 1100 ng/mL. The compound further displayed a clearance in data set [15] of 16.3 mL/min/kg. Besides, the half-life in [16] was found to be 274 min; in data set [18] it was 109 min.
In data set [1] (setting [19]), `Cc1ccc(C(=O)Nc2cc(C(=O)O)nn2Cc2ccccc2F)cc1` yielded an inhibition of 58.5%. Moreover, on P2Y purinoceptor 14, the IC50 was 111 nM.
